Experimental data: ChEMBL document CHEMBL5247592, “Discovery of novel VEGFR-2-PROTAC degraders based on the localization of lysine residues via recruiting VHL for the treatment of gastric cancer” (Eur J Med Chem, 2022)
Activity calls are given as the source filed them. The calls are words filed in the database; no cut-off is given here.

How the values were obtained:
[1] = molecular target: T1, von Hippel-Lindau disease tumor suppressor/Vascular endothelial growth factor receptor 2 (Homo sapiens, UniProt P35968+P40337); test: PROTAC activity at VHL/VEGFR2 in human HGC-27 cells assessed as induction of VEGRF2 protein degradation at 10 uM incubated for 2 hrs by Western blot analysis; type: cell-based
Target sequence in this assay (P35968 20-1356 limits assumed): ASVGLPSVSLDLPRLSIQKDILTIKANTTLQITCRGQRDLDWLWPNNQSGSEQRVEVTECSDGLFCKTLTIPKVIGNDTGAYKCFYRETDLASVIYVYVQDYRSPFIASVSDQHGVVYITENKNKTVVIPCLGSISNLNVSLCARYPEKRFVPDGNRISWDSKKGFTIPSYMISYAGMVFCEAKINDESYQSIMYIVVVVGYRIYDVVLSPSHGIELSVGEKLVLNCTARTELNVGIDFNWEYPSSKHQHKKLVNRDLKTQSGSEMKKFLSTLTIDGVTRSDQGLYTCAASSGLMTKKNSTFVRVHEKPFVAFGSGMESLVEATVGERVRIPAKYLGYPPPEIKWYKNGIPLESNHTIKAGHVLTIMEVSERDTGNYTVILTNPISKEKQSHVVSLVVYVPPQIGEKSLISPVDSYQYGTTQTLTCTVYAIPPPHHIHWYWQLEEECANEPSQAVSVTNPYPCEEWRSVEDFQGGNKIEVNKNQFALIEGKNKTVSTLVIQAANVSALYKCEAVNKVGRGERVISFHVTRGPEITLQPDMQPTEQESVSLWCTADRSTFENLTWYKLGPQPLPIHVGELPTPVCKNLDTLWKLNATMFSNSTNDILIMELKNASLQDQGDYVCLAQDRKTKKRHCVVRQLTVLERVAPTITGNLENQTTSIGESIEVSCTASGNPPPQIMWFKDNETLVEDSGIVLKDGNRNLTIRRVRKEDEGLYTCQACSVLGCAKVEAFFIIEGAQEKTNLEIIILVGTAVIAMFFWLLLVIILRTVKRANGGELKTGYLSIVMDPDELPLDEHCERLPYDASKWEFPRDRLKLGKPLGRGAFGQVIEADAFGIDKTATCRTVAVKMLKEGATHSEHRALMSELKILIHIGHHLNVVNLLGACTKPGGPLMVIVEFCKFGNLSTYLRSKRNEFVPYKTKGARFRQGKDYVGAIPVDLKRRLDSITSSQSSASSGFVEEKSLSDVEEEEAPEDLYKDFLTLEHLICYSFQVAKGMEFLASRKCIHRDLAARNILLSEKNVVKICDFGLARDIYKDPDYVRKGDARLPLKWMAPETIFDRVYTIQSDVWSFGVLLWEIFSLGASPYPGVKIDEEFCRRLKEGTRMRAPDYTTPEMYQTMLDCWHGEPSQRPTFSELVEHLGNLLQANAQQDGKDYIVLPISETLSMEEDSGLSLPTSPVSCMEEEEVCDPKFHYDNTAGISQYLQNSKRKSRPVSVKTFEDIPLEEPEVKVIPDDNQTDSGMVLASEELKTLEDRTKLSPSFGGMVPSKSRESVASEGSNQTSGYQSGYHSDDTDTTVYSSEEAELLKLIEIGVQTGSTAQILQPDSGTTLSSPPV
Target sequence in this assay (P40337 whole entry partner): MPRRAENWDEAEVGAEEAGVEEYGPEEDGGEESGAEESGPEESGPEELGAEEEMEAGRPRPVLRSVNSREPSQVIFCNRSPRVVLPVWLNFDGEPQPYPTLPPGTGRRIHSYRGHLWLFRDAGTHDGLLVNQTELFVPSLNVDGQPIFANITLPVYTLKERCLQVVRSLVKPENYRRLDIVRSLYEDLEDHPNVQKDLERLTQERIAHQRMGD

HGC-27 = test: Antiproliferative activity against human HGC-27 cells assessed as inhibition of cell growth incubated for 72 hrs by MTT assay; type: functional, cell-based; conditions: HGC-27, 72 h
[2] = Cytotoxicity against HEK293T cells assessed as inhibition of cell growth incubated for 72 hrs by MTT assay; type: toxicity, cell-based, HEK-293T; conditions: human
[3] = Cytotoxicity against HUVEC cells assessed as inhibition of cell growth incubated for 72 hrs by MTT assay; type: toxicity, cell-based; conditions: human
[4] = Cytotoxicity against human GES1 cells assessed as inhibition of cell growth incubated for 72 hrs by MTT assay; type: toxicity, cell-based
[5] = molecular target: T1, von Hippel-Lindau disease tumor suppressor/Vascular endothelial growth factor receptor 2; test: PROTAC activity at VHL/VEGFR2 in human HGC-27 cells assessed as reduction in VEGFR2 protein level incubated for 24 hrs by Western blot analysis; type: cell-based
Target sequence in this assay (P35968 whole entry): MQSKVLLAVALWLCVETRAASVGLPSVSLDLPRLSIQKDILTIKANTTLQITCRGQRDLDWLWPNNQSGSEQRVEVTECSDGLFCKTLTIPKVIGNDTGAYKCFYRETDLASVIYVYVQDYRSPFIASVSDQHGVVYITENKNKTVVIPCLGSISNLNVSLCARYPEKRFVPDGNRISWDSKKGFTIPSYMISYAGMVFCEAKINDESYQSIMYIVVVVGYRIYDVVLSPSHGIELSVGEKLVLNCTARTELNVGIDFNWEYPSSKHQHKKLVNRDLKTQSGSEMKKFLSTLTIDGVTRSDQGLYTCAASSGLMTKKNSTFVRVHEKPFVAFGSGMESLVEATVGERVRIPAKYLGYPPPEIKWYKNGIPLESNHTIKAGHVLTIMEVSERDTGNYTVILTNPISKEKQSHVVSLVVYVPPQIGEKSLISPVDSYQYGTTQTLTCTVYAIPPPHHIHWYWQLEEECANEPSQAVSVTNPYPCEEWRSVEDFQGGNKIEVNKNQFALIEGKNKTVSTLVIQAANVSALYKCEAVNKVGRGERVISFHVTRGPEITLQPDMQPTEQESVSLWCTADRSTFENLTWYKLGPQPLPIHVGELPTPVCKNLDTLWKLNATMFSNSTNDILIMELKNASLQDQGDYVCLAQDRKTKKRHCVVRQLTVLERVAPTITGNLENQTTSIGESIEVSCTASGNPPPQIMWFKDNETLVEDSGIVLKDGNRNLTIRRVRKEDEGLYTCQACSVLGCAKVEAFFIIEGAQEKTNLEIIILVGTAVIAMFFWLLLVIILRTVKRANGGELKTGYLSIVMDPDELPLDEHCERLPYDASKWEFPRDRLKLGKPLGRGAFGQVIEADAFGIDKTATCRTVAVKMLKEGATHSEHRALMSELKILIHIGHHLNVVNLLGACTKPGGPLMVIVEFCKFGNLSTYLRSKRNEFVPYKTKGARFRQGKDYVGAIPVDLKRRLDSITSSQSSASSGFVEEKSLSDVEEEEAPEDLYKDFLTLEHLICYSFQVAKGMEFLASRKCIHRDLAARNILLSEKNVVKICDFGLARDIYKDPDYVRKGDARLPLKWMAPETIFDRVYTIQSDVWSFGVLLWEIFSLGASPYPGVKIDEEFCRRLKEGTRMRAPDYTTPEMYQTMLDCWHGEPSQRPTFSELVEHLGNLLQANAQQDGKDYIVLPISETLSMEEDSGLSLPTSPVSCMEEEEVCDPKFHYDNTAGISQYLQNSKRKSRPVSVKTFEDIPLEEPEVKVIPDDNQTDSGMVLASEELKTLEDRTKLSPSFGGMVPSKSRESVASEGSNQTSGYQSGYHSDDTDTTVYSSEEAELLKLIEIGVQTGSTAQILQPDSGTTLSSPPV
Target sequence in this assay (P40337 whole entry): as the sequence (P40337 whole entry partner) above

[6] = molecular target: T1, von Hippel-Lindau disease tumor suppressor/Vascular endothelial growth factor receptor 2; test: PROTAC activity at VHL/VEGFR2 in human HGC-27 cells assessed as reduction in VEGFR2 protein level by measuring maximal efficacy incubated for 24 hrs by Western blot analysis relative to control; type: cell-based
Target sequence in this assay (P35968 20-1356 limits assumed): as the sequence (P35968 20-1356 limits assumed) above
Target sequence in this assay (P40337 whole entry partner): as the sequence (P40337 whole entry partner) above

[7] = molecular target: T1, von Hippel-Lindau disease tumor suppressor/Vascular endothelial growth factor receptor 2; test: PROTAC activity at VHL/VEGFR2 in human HGC-27 cells assessed as reduction in VEGFR2 protein level by measuring maximal efficacy at 3.33 uM incubated for 24 hrs by Western blot analysis relative to control; type: cell-based
Target sequence in this assay (P35968 20-1356 limits assumed): as the sequence (P35968 20-1356 limits assumed) above
Target sequence in this assay (P40337 whole entry partner): as the sequence (P40337 whole entry partner) above

[8] = molecular target: Vascular endothelial growth factor receptor 2 (Homo sapiens, UniProt P35968); test: Inhibition of VEGFR2 (unknown origin) at 1 uM by caliper mobility shift assay relative to control
Vascular endothelial growth factor receptor 2, sequence (P35968 whole entry): as the sequence (P35968 whole entry) above

| Structure (SMILES) | Activity [1] | EC50 [5] [µM] | Emax [6] [%] | Emax [7] [%] | inhibition [8] [%] | IC50 (HGC-27) [µM] | IC50 at 72 h [2] [µM] | IC50 at 72 h [3] [µM] | IC50 at 72 h [4] [µM] |
| --- | --- | --- | --- | --- | --- | --- | --- | --- | --- |
| CC(=O)N[C@H](C(=O)N1C[C@H](O)C[C@H]1C(=O)NCc1ccc(-c2scnc2C)cc1)C(C)(C)C | inactive |  |  |  |  |  |  |  |  |
| Cc1ccc(NC(=O)Cn2cc(-c3ccc4c(NC(=O)c5ccc(NC(=O)CCC(=O)N[C@H](C(=O)N6C[C@H](O)C[C@H]6C(=O)NCc6ccc(-c7scnc7C)cc6)C(C)(C)C)cc5)n[nH]c4c3)cn2)cc1C(F)(F)F |  |  |  |  |  | > 50 | 48.2 | 28.2 | 47.4 |
| Cc1ccc(NC(=O)Cn2cc(-c3ccc4c(NC(=O)c5ccc(NC(=O)CCCCCCCCCC(=O)N[C@H](C(=O)N6C[C@H](O)C[C@H]6C(=O)NCc6ccc(-c7scnc7C)cc6)C(C)(C)C)cc5)n[nH]c4c3)cn2)cc1C(F)(F)F |  |  |  |  |  | 55.6 | > 100 | > 50 | 12 |
| Cc1ccc(NC(=O)Cn2cc(-c3ccc4c(NC(=O)c5ccc(N6CCN(C(=O)NCCCCCCCCC(=O)N[C@H](C(=O)N7C[C@H](O)C[C@H]7C(=O)NCc7ccc(-c8scnc8C)cc7)C(C)(C)C)CC6)cc5)n[nH]c4c3)cn2)cc1C(F)(F)F |  |  |  |  |  | > 50 | > 100 | > 100 | > 100 |
| CNC(=O)c1cc(Oc2ccc(NC(=O)Nc3ccc(Cl)c(C(F)(F)F)c3)cc2)ccn1 [SORAFENIB] |  |  |  |  |  | 5.15 | 6.38 | 9.66 | 9.47 |
| Cc1ccc(NC(=O)Cn2cc(-c3ccc4c(NC(=O)c5ccc(NC(=O)CCCCC(=O)N6CCN(CCCCCC(=O)N[C@H](C(=O)N7C[C@H](O)C[C@H]7C(=O)NCc7ccc(-c8scnc8C)cc7)C(C)(C)C)CC6)cc5)n[nH]c4c3)cn2)cc1C(F)(F)F |  |  |  |  |  | 23.9 | > 100 | > 50 | 26.8 |
| Cc1ccc(NC(=O)Cn2cc(-c3ccc4c(NC(=O)c5ccc(N6CCN(C(=O)NCCCCCCCCCCC(=O)N[C@H](C(=O)N7C[C@H](O)C[C@H]7C(=O)NCc7ccc(-c8scnc8C)cc7)C(C)(C)C)CC6)cc5)n[nH]c4c3)cn2)cc1C(F)(F)F |  |  |  |  |  | > 50 | > 100 | > 100 | > 100 |
| Cc1ccc(NC(=O)Cn2cc(-c3ccc4c(NC(=O)c5ccc(N6CCN(CCCCCC(=O)N[C@H](C(=O)N7C[C@H](O)C[C@H]7C(=O)NCc7ccc(-c8scnc8C)cc7)C(C)(C)C)CC6)cc5)n[nH]c4c3)cn2)cc1C(F)(F)F |  |  |  |  |  | > 50 | 43.8 | > 50 | > 100 |
| Cc1ccc(NC(=O)Cn2cc(-c3ccc4c(NC(=O)c5ccc(N)cc5)nn(C(=O)CCCCCCCCCCC(=O)N[C@H](C(=O)N5C[C@H](O)C[C@H]5C(=O)NCc5ccc(-c6scnc6C)cc5)C(C)(C)C)c4c3)cn2)cc1C(F)(F)F |  | 0.32 | 81.7 |  | 96.3 | 1.44 | 25.9 | 34.6 | 49.7 |
| Cc1ccc(NC(=O)Cn2cc(-c3ccc4c(NC(=O)c5ccc(NC(=O)CCCCC(=O)N6CCN(CCCC(=O)N[C@H](C(=O)N7C[C@H](O)C[C@H]7C(=O)NCc7ccc(-c8scnc8C)cc7)C(C)(C)C)CC6)cc5)n[nH]c4c3)cn2)cc1C(F)(F)F |  |  |  |  |  | 30.9 | 38.2 | 10.9 | 25.4 |
| Cc1ccc(NC(=O)Cn2cc(-c3ccc4c(NC(=O)c5ccc(N6CCN(C(=O)NCCCCCCC(=O)N[C@H](C(=O)N7C[C@H](O)C[C@H]7C(=O)NCc7ccc(-c8scnc8C)cc7)C(C)(C)C)CC6)cc5)n[nH]c4c3)cn2)cc1C(F)(F)F |  |  |  |  |  | > 50 | > 100 | > 100 | > 100 |
| Cc1ccc(NC(=O)Cn2cc(-c3ccc4c(NC(=O)c5ccc(NC(=O)CCCCC(=O)N6CCN(CCCCCCCC(=O)N[C@H](C(=O)N7C[C@H](O)C[C@H]7C(=O)NCc7ccc(-c8scnc8C)cc7)C(C)(C)C)CC6)cc5)n[nH]c4c3)cn2)cc1C(F)(F)F |  |  |  |  |  | 44.7 | 31.9 | 25 | 47.9 |

Now from value to compound, other results behind:

| Activity [1] | EC50 [5] [µM] | Emax [6] [%] | Emax [7] [%] | inhibition [8] [%] | Structure (SMILES) | IC50 (HGC-27) [µM] | IC50 at 72 h [2] [µM] | IC50 at 72 h [3] [µM] | IC50 at 72 h [4] [µM] |
| --- | --- | --- | --- | --- | --- | --- | --- | --- | --- |
|  | > 3.33 | 31 |  |  | Cc1ccc(NC(=O)Cn2cc(-c3ccc4c(NC(=O)c5ccc(NC(=O)CCCCC(=O)N6CCN(CCCCCCC(=O)N[C@H](C(=O)N7C[C@H](O)C[C@H]7C(=O)NCc7ccc(-c8scnc8C)cc7)C(C)(C)C)CC6)cc5)n[nH]c4c3)cn2)cc1C(F)(F)F | 20.4 | 24.1 | 29.6 | 51.4 |
|  | 0.33 |  | 62.6 |  | Cc1ccc(NC(=O)Cn2cc(-c3ccc4c(NC(=O)c5ccc(NC(=O)CCCCC(=O)N[C@H](C(=O)N6C[C@H](O)C[C@H]6C(=O)NCc6ccc(-c7scnc7C)cc6)C(C)(C)C)cc5)n[nH]c4c3)cn2)cc1C(F)(F)F | 10.1 | 46.8 | 13 | 46.4 |
|  | 0.89 |  | 42.9 |  | Cc1ccc(NC(=O)Cn2cc(-c3ccc4c(NC(=O)c5ccc(NC(=O)CCCCCCCCCCC(=O)N[C@H](C(=O)N6C[C@H](O)C[C@H]6C(=O)NCc6ccc(-c7scnc7C)cc6)C(C)(C)C)cc5)n[nH]c4c3)cn2)cc1C(F)(F)F | 5.13 | 9.45 | 17.6 | 31.8 |
|  | > 3.33 |  |  |  | Cc1ccc(NC(=O)Cn2cc(-c3ccc4c(NC(=O)c5ccc(NC(=O)CCCCCCCCC(=O)N[C@H](C(=O)N6C[C@@H](O)C[C@H]6C(=O)NCc6ccc(-c7scnc7C)cc6)C(C)(C)C)cc5)n[nH]c4c3)cn2)cc1C(F)(F)F | 2.09 | > 100 | 12.2 | 5.13 |
|  | > 3.33 |  |  |  | Cc1ccc(NC(=O)Cn2cc(-c3ccc4c(NC(=O)c5ccc(N)cc5)nn(C(=O)CCCCCCCCC(=O)N[C@H](C(=O)N5C[C@H](O)C[C@H]5C(=O)NCc5ccc(-c6scnc6C)cc5)C(C)(C)C)c4c3)cn2)cc1C(F)(F)F | 12.1 | 44.9 | 5.5 | 3.36 |
|  | > 3.33 | 8.7 |  |  | Cc1ccc(NC(=O)Cn2cc(-c3ccc4c(NC(=O)c5ccc(N6CCN(CCCCC(=O)N[C@H](C(=O)N7C[C@H](O)C[C@H]7C(=O)NCc7ccc(-c8scnc8C)cc7)C(C)(C)C)CC6)cc5)n[nH]c4c3)cn2)cc1C(F)(F)F | > 50 | > 100 | > 50 | 60.3 |
|  | > 3.33 |  |  |  | Cc1ccc(NC(=O)Cn2cc(-c3ccc4c(NC(=O)c5ccc(N6CCN(CCCCCCCC(=O)N[C@H](C(=O)N7C[C@H](O)C[C@H]7C(=O)NCc7ccc(-c8scnc8C)cc7)C(C)(C)C)CC6)cc5)n[nH]c4c3)cn2)cc1C(F)(F)F | 22.6 | > 100 | > 50 | > 100 |
|  | > 3.33 | 13.5 |  |  | Cc1ccc(NC(=O)Cn2cc(-c3ccc4c(NC(=O)c5ccc(NC(=O)CCCCCCCC(=O)N[C@H](C(=O)N6C[C@H](O)C[C@H]6C(=O)NCc6ccc(-c7scnc7C)cc6)C(C)(C)C)cc5)n[nH]c4c3)cn2)cc1C(F)(F)F | 10.7 | > 100 | > 50 | 10.9 |
|  | > 3.33 |  |  |  | Cc1ccc(NC(=O)Cn2cc(-c3ccc4c(NC(=O)c5ccc(NC(=O)CCCCCC(=O)N[C@H](C(=O)N6C[C@H](O)C[C@H]6C(=O)NCc6ccc(-c7scnc7C)cc6)C(C)(C)C)cc5)n[nH]c4c3)cn2)cc1C(F)(F)F | 7.26 | > 100 | > 50 | 31.3 |
|  | 0.28 |  | 48 |  | Cc1ccc(NC(=O)Cn2cc(-c3ccc4c(NC(=O)c5ccc(NC(=O)CCCCCCC(=O)N[C@H](C(=O)N6C[C@H](O)C[C@H]6C(=O)NCc6ccc(-c7scnc7C)cc6)C(C)(C)C)cc5)n[nH]c4c3)cn2)cc1C(F)(F)F | 4.36 | 17.9 | 4.13 | 14.3 |
|  | 0.64 | 38.5 |  |  | Cc1ccc(NC(=O)Cn2cc(-c3ccc4c(NC(=O)c5ccc(NC(=O)CCCCC(=O)N6CCN(CCCCC(=O)N[C@H](C(=O)N7C[C@H](O)C[C@H]7C(=O)NCc7ccc(-c8scnc8C)cc7)C(C)(C)C)CC6)cc5)n[nH]c4c3)cn2)cc1C(F)(F)F | 23.9 | 38.7 | 9.36 | 23.1 |
|  | > 3.33 | 17.3 |  |  | Cc1ccc(NC(=O)Cn2cc(-c3ccc4c(NC(=O)c5ccc(N6CCN(C(=O)NCCCCC(=O)N[C@H](C(=O)N7C[C@H](O)C[C@H]7C(=O)NCc7ccc(-c8scnc8C)cc7)C(C)(C)C)CC6)cc5)n[nH]c4c3)cn2)cc1C(F)(F)F | > 50 | > 100 | > 100 | > 100 |
|  |  |  |  | 60.4 | Cc1ccc(NC(=O)Cn2cc(-c3ccc4c(NC(=O)CCCCCCCCCCC(=O)N[C@@H](C(=O)N5C[C@H](O)C[C@H]5C(=O)NCc5ccc(-c6scnc6C)cc5)C(C)(C)C)n[nH]c4c3)cn2)cc1C(F)(F)F | > 50 | > 100 | > 50 | > 50 |
|  | > 3.33 | 38.2 |  |  | Cc1ccc(NC(=O)Cn2cc(-c3ccc4c(NC(=O)c5ccc(N6CCN(CCCCCCC(=O)N[C@H](C(=O)N7C[C@H](O)C[C@H]7C(=O)NCc7ccc(-c8scnc8C)cc7)C(C)(C)C)CC6)cc5)n[nH]c4c3)cn2)cc1C(F)(F)F | 5.5 | 38.6 | > 50 | 22.4 |
